R/S and IC50 data for seven compounds are collected here from patent US20110098180A1, “Herbicide-Resistant Plants, And Polynucleotides And Methods For Providing Same” (United States Department of Agriculture, priority 2002, published 2011).

For assay [1], the system named is hydrilla PDS Arg^304 → Threonine, His-tagged. Kind of assay: Cross-resistance testing, His-tagged column-purified PDS (Table 2A). The note with it: Threonine at 304 relative to Arginine; Table 2A. Type of assay: biochemical, Hydrilla verticillata. The text has this: (§1) In further cross-resistance testing similar to that described above, an alternative production and purification protocol was used in the preparation of the mutant PDS proteins, and the activity of the proteins was again tested using the same testing protocol. The alternative approach utilized His-tagging and column purification of the mutant PDS protins. The results are shown in. Table 2A below.
(§2) The plasmid pHy4ATG5 was made by cloning the Phytoene Desaturase (pds) gene from Hydrilla verticillata, including 323 by upstream of the beginning of the putative mature protein, into the vector TOPO4 (Invitrogen, Carlsbad, Calif.): The 1-323 by region contained three potential start codons (ATG)(positions 1, 114 and 225 bp) in frame with pds. In order to express pds in bacteria, deletion clones were made for each of the three potential start codons with and without ATG. Only the results for possible origins of translation 1 and 225 by (named ORF and 3ORF) are reported here. pds was PCR amplified and subcloned into TOPO4 using pHy4ATG5 as template and the reverse primer RPDS—1849 (5′[…] 3′). The forward primers used were ORF (5′ […] 3′), ORF-ATG (5′ […] 3′), 3_ORF (5′[…] 3′) and 3_ORF-ATG (5′ […] 3′). The resulting plasmids were named pORF, pORF-ATG (minus ATG codon), p3ORF and p3ORF-ATG. The pds-containing EcoRI-fragments of these plasmids were subcloned into the EcoRI site of pRSETb vector (Invitrogen) for Histidine tagging and bacterial expression. The resulting constructs were pHy4SET, pHy4SET-ATG (minus ATG), p3ORFSET and p3ORFSET-ATG.
(§3) Plasmid p3ORF-ATG was later mutagenized at the amino acid 304 of pds to replace the amino acid Arginine (Arg) by Histidine (His), Threonine (Thr), Serine (Ser), or Cysteine (Cys), using the QuickChange™ Site-Directed Mutagenesis Kit of Stratagene (La Jolla, Calif.). Primers used to replace Arg by His were Hyd-His-For (5′[…] 3′) and Hyd-His-Rev (5′ […] 3′); to replace Arg by Thr we used primers Hyd-Thr-For (5′[…] 3′) and Hyd-Thr-Rev (5′[…] 3′); to replace Arg by Ser we used Hyd-Ser-For (5′[…] 3′) and Hyd-Ser-Rev (5′[…] 3′); and Arg was replaced by Cys using Hyd-Cys-For (5′[…] 3′) and Hyd-Cys-Rev (5′[…] 3′). Resulting plasmids were named: p3ORFHisSet-ATG, p3ORFThrSet-ATG, p3ORFSerSet-ATG and p3ORFCysSet-ATG.
(§4) All pRSET derived constructs were transformed into BL21(DE3)pLysS cells (Invitrogen), induced with IPTG for protein expression, and the His tag overproduced proteins analyzed by Western blot using Anti-HisG antibody (Invitrogen, cat. #R940-25).
(§5) When working with His-tagged PDS proteins expressed as described in Example 4, the purified protein used for testing was prepared as follows. BL21(DE3)pLysS cells were grown overnight in 500 ml Luria Broth (LB) supplemented with carbenicillin (100 mg/l) and cloramphenicol (60 mg/l) at 37° C., and induced with 0.3 mM isopropylthio-β-D-galactoside (IPTG) for 3 hrs. Cells were lysed using a French press (Spectronics Instrument) at 20,000 psi and overexpressed PDS was purified on a nickel activated Hitrap Chelating HP column according to the manufacturers instructions (Amersham Bioscience).
(§6) Generally, PDS protein fractions prepared as described above (Non-His-tagged and His-tagged) were mixed with a soluble fraction from phytoene-producing E. coli cells. For the phytoene producing cells, a plasmid construct containing the genes GGPP synthase and phytoene synthase from Erwinia uredovora, transformed into the appropriate E. coli strain, was used (see, Misawa et al., J. of Bacteriology 177:6575, 1995). This E. coli strain was separately cultured and lysed, and its soluble components collected (“the EB extract”) in a fashion similar to that described above for the PDS-producing cells.
(§7) His-tagged, purified proteins prepared as described above were transferred to the assay buffer on a PD10 column (Amersham Bioscience) and the concentration was adjusted to 100 μg/mL. […]

Assay [2] has as its target hydrilla PDS Arg^304 → Threonine, His-tagged (Hydrilla verticillata, UniProt Q66PY0, R304T). The assay is described as above. Type of assay: biochemical. The note with it: Threonine at 304; His-tagged, column-purified PDS; read-out: I50.
From the text: as §1, §2, §3, §4, §5, §6, §7

hydrilla PDS Arg^304 → Threonine, His-tagged (Hydrilla verticillata, UniProt Q66PY0, R304T), sequence (Q66PY0 77-580 R304T): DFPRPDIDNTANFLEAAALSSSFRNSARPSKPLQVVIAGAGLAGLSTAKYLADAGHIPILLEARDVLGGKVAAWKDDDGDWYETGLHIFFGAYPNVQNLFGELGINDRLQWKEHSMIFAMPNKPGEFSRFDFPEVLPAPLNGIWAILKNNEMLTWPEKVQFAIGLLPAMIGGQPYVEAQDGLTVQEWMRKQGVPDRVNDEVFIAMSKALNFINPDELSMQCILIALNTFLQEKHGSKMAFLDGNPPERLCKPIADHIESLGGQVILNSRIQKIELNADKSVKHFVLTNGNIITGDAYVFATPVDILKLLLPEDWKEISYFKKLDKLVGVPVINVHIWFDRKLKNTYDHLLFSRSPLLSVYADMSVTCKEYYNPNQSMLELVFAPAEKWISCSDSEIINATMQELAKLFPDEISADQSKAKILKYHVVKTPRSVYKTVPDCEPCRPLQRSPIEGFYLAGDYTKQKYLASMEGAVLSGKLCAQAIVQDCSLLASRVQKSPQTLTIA

Take `CCC(Oc1ccc(F)c(C(F)(F)F)c1)C(=O)NCc1ccccc1` (stereo not shown) [Beflubutamid]: the R/S in assay [1] was determined as 1.5. Moreover, the IC50 in assay [2] was 106 µM.

For the compound `O=C(Nc1ccc(F)cc1F)c1cccnc1Oc1cccc(C(F)(F)F)c1` [Diflufenican], in assay [1], the R/S amounted to 1.0. Besides, in assay [2], the IC50 was 104 µM. In the case of `O=C1C(Cl)C(CCl)CN1c1cccc(C(F)(F)F)c1` (stereo not shown) [Fluorochloridone], the R/S in assay [1] is recorded as 1.6. Besides, the IC50 in assay [2] was 210 µM. Regarding `CNC1=C(c2cccc(C(F)(F)F)c2)C(=O)C(c2ccccc2)O1` (stereo not shown) [Flurtamone], the R/S in assay [1] was found to be 5.9. Further, the IC50 in assay [2] was 1780 µM. In turn, `CNc1cnn(-c2cccc(C(F)(F)F)c2)c(=O)c1Cl` [Norflurazon] returned a R/S in assay [1] of 30.0. Further, the IC50 in assay [2] was found to be 1510 µM. The corresponding values for `O=C(Nc1ccc(F)cc1)c1cccc(Oc2cccc(C(F)(F)F)c2)n1` [Piconilafen, Picolinafen] are 0.2 and 60 µM.

Regarding Fluridone, in assay [1], the R/S was determined as 7.8.
